In US11013696B2, “Lipids and lipid compositions for the delivery of active agents” (Novartis AG, priority 2013, dated 2021):

How the values were obtained:
[1] = Percent encapsulation of mRNA in lipid nanoparticles (Quant-iT Ribogreen); assay type: physicochemical; conditions: for % encapsulation mRNA Leptin: Table 2, leptin mRNA in LNP with the cationic lipid
How it was run: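 LNPs made by T-junction mixing of ethanolic lipids (cationic lipid:DSPC:cholesterol:PEG lipid 40:10:38:2, N:P 4:1) with mRNA in citrate pH 5.8-6.0, then dialysed against PBS overnight at 4 °C. RiboGreen fluorescence (ex 480/em 520 nm) measured in TE ± 0.75% Triton X-100; encapsulation = (total − free)/total.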

[2] = Entrapment and RNA concentration of RSV-F replicon liposomes (Quant-iT RiboGreen); assay type: physicochemical
Method: RNA was encapsulated in liposomes made essentially by the method of Geall et al. (2012) PNAS vol. 109 (36): 14604-14609, Jeffs et al. (2005) Pharmaceutical Research 22 (3):362-372 and Maurer et al. (2001) Biophysical Journal, 80: 2310-2326 The liposomes were made of 10% DSPC (zwitterionic), 40% cationic lipid, 48% cholesterol and 2% PEG-conjugated DMG (2 kDa PEG). These proportions refer to the % moles in the total liposome.
Briefly, lipids were dissolved in ethanol (2 ml), a RNA replicon was dissolved in buffer (2 ml, 100 mM sodium citrate, pH 6) and these were mixed with 2 ml of buffer followed by 1 hour of equilibration. The mixture was then dialized overnight against 1×PBS. The resulting product contained liposomes, with ˜70-95% encapsulation efficiency. For in vitro and in vivo experiments formulations were diluted to the required RNA concentration with 1×PBS.
The percentage of encapsulated RNA and RNA concentration were determined by Quant-iT RiboGreen RNA reagent kit (Invitrogen), following manufacturer's instructions. The ribosomal RNA standard provided in the kit was used to generate a standard curve. Liposomes were diluted 10× or 100× in 1×TE buffer (from kit) before addition of the dye. Separately, liposomes were diluted 10× or 100× in 1×TE buffer containing 0.5% Triton X before addition of the dye (to disrupt the liposomes and thus to assay total RNA). Thereafter an equal amount of dye was added to each solution and then ˜180 μL of each solution after dye addition was loaded in duplicate into a 96 well tissue culture plate. The fluorescence (Ex 485 nm, Em 528 nm) was read on a microplate reader. All liposome formulations were dosed in vivo based on the encapsulated amount of RNA.
A self-replicating replicon encoding RSV F protein was administered to BALB/c mice, 8 animals per group, by bilateral intramuscular vaccinations (50 μL per leg) on days 0 and 21 with the replicon (0.1 and 1 ng) formulated as liposomes with the lipids described below. All liposomes tested were composed of 40% cationic lipid, 10% DSPC, 48% cholesterol and 2% PEG-DMG with similar amounts of RNA. The liposomes were all prepared using the same technique as described above.
% entrapment (% E), Concentration of RNA (Conc), particle size measured by DLS, and polydispersity reported by DLS of LNPs prepared with different cationic lipids

[3] = RSV-F replicon LNP prepared for 1st IM
[4] = RSV-F replicon LNP prepared for 2nd IM

% Encap. ([1]; Gluc mRNA) [%] | % Encap. ([1]; hFIX mRNA) [%] | % Encap. ([1]; hLeptin mRNA) [%] | SMILES | % Encap. ([1]; FLuc mRNA) [%] | % encapsulation mRNA Leptin [1] [%] | % Encap. ([1]; mEPO mRNA) [%] | % E (% entrapment) [2, 3] [%] | % E (% entrapment) [2, 4] [%]
97.9 | 96.9 | 98.1 | CCCCCCCCCCCCC(CCOC(=O)CCCCC(OCCCCCCCC)OCCCCCCCC)OC(=O)OCCCN(CC)CC (stereo not shown) [Example 16, 3-(((3-(diethylamino)propoxy)carbonyl)oxy)pentadecyl 6,6-bis(octyloxy)hexanoate] | 96.8 | 97.7 | 97.9 |  | 
 |  |  | CCCCCCCCCCCCC(CCOC(=O)CCCCC(OCC(CC)CCCC)OCC(CC)CCCC)OC(=O)OCCCN(CC)CC (stereo not shown) [Example 18, 3-(((3-(diethylamino)propoxy)carbonyl)oxy)pentadecyl 6,6-bis((2-ethylhexyl)oxy)hexanoate] |  | 97.1 |  | 96.15 | 96.25
 |  |  | CCCCCCCCCC(=O)OCCC(CC(CCCCCCCC)CCCCCCCC)OC(=O)OCCCN(C)C (stereo not shown) [Example 70, 3-(((3-(dimethylamino)propoxy)carbonyl)oxy)-5-octyltridecyl decanoate] |  | 98.3 |  | 90.75 | 94.24
 |  |  | CCCCC/C=C\C/C=C\CCCCCCCC(=O)OCC(COC(=O)CCCCCCC/C=C\C/C=C\CCCCC)OC(=O)CCC(CCCCCCCCCCCC)OC(=O)OCCCN(C)C (stereo not shown) [Example 80, (9Z,9′Z,12Z,12′Z)-2-((4-(((3-(dimethylamino)propoxy)carbonyl)oxy)hexadecanoyl)oxy)propane-1,3-diyl bis(octadeca-9,12-dienoate)] | 85.3 |  | 96.2 |  | 
95.9 | 96.9 | 98.1 | CCCCC/C=C\C/C=C\CCCCCCCCC(CCC(=O)OC(COC(=O)CCCCCCC)COC(=O)CCCCCCC)OC(=O)OCCCN(C)C (stereo not shown) [Example 94, 2-(((13Z,16Z)-4-(((3-(dimethylamino)propoxy)carbonyl)oxy)docosa-13,16-dienoyl)oxy)propane-1,3-diyl dioctanoate] | 93.7 | 98.1 | 96.4 |  | 

SMILES | % Encap. ([1]; Gluc mRNA) [%] | % Encap. ([1]; hFIX mRNA) [%] | % Encap. ([1]; hLeptin mRNA) [%] | % Encap. ([1]; FLuc mRNA) [%] | % encapsulation mRNA Leptin [1] [%] | % Encap. ([1]; mEPO mRNA) [%] | % E (% entrapment) [2, 3] [%] | % E (% entrapment) [2, 4] [%]
CCCCCCCCCCCCC(CCOC(=O)CCCCC(COC(=O)CCCCCCC)COC(=O)CCCCCCC)OC(=O)OCCCN(CC)CC (stereo not shown) [Example 1, 2-(10-dodecyl-3-ethyl-8,14-dioxo-7,9,13-trioxa-3-azaoctadecan-18-yl)propane-1,3-diyl dioctanoate] | 97.3 | 94.0 | 97.1 | 94.7 | 97.1 | 95.8 | 91.11 | 87.13
